Experimental data reported in ChEMBL document CHEMBL1201862, “PubChem BioAssay data set” (2004).
Calls of active or inactive are those of the source.

Key:
[1] = T. cruzi intracellular amastigote growth inhibition, dose response, imaging, CA-I/72 strain, bovine embryo skeletal muscle, dry powder (AID 651885); type: functional, cell-based
cells [2] = type: functional, cell-based
[3] = target: T1, Nuclear receptor subfamily 0 group B member 1 (Homo sapiens, UniProt P51843); type: functional, cell-based;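 note: HEK293T cells transfected with SF-1 and DAX-1 plus StAR promoter luciferase reporter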
T1 sequence (P51843 whole entry): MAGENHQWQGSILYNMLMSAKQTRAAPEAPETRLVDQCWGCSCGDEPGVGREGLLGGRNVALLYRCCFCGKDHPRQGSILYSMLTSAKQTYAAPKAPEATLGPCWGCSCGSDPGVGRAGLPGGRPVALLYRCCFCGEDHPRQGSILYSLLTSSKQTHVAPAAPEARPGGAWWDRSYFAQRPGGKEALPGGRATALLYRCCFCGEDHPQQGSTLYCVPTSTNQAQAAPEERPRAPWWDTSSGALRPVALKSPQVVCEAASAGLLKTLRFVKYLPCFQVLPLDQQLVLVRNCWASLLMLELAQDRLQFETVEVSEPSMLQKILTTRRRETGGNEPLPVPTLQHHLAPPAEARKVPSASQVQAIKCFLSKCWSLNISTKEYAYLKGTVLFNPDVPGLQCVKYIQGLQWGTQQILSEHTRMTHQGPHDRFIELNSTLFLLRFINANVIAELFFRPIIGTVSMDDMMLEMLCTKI

[4] = NIH/3T3 fibroblast cytotoxicity, dose response, cytotoxicity control for T. cruzi growth inhibitor project, cell-based, cherry-pick samples, set 2 (AID 651817); type: functional; details: NIH3T3
cells [5] = type: functional, cell-based; remark: listed apart in the source
[6] = target: T2, Trace amine-associated receptor 1 (Homo sapiens, UniProt Q96RJ0); test: Fluorescence-based cell-based high throughput dose response assay to identify agonists of the human trace amine associated receptor 1 (TAAR1).; type: functional
T2 sequence (Q96RJ0 whole entry): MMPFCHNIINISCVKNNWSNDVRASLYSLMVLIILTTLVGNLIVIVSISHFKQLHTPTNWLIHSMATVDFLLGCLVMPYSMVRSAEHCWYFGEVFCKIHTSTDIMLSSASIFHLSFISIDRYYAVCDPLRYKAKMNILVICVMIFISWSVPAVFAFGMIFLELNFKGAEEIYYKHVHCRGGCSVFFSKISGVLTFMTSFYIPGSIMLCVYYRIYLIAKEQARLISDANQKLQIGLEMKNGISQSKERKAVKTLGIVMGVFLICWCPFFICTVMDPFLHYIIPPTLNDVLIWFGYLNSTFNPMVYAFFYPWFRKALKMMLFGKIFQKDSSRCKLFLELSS

[7] = target: T2, Trace amine-associated receptor 1; test: Counterscreen for agonists of the human trace amine associated receptor 1 (hTAAR1): Fluorescence-based cell-based high throughput dose response assay to identify hTAAR1 agonist that also desensitize TAAR1 receptor response.; type: functional
cells [8] = type: functional, cell-based; remark: listed apart in the source
[9] = Luminescence Cell-Based Dose Confirmation HTS to Identify Activators of 5'UTR Stem-Loop Driven Alpha-Synuclein mRNA Translation in H4 Neuroglioblastoma Cells. [Related pubchem assays: 1829 (Project Summary), 1814 (Primary HTS)]; type: functional
[10] = Luminescence Cell-Based Dose Response HTS to Identify Activators of Luciferase Translation or Activity in H4 […] Cells. [Related pubchem assays: 1829 (Project Summary), 1814 (Primary HTS)]; type: functional
H4 = test: Luminescence Cell-Based Dose Response HTS to Identify Activators of 5'UTR Stem-Loop Driven Prion Protein mRNA Translation in H4 Neuroglioblastoma Cells. [Related pubchem assays: 1829 (Project Summary), 1814 (Primary HTS)]; type: functional; details: Homo sapiens
Vero [11] = test: cells; type: functional, cell-based; details: Chlorocebus sabaeus
INS1 = test: beta cell apoptosis inhibitors, cytokine rescue, dose response, luminescence, retest (AID 449756); type: functional, cell-based; details: Rattus norvegicus;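 note: cell death triggered by IL-1 beta plus TNF-alpha plus IFN-gamma mixture; protective hits raise ATP signal compared with cytokine alone wells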
Vero [12] = test: cells; type: functional; details: Chlorocebus sabaeus
[13] = Shn3 3'UTR reporter inhibitors, dose response, cell-based, Clone20 osteoblasts, firefly luciferase, cherry-picked (AID 624132); type: functional;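 note: firefly luciferase luminescence from reporter carrying the Shn3 3'UTR in osteoblasts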
[14] = HepG2 cell cytotoxicity, dose response, cytotoxicity control for Shn3 inhibitor project, CellTiter-Glo, cherry-picked (AID 624134); type: functional, cell-based
[15] = control 3'UTR Renilla luciferase suppression, dose response, counter-screen for Shn3 inhibitor project, cell-based, Clone20-Shn3RL, cherry-picked (AID 624133); type: functional
Interleukin-8 [16] = target: T3, Interleukin-8 (Homo sapiens, UniProt P10145); test: Dose Response confirmation of uHTS small molecule hits for cystic fibrosis induced NFkb Inhibitors in a TNFa-induced IL8 counterscreen.; type: functional; details: read-out: IC50_Mean
T3 sequence (P10145 whole entry): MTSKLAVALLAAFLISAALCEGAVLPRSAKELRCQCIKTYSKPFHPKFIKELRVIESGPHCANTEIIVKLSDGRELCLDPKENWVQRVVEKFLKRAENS

Interleukin-8 [17] = target: T3, Interleukin-8; test: Dose Response confirmation of uHTS small molecule hits for cystic fibrosis induced NFkb Inhibitors in a PAF-induced IL8 counterscreen.; type: functional; details: read-out: IC50_Mean
Cytochrome P450 2C19 = Cytochrome P450 2C19 (Homo sapiens, UniProt P33261); test: Cytochrome panel assay with activity outcomes. Panel member name: p450-cyp2c19 Compounds with AC50 equal or less than 10 uM are considered active; type: functional; details: read-out: AC50
Sequence of Cytochrome P450 2C19 (P33261 whole entry): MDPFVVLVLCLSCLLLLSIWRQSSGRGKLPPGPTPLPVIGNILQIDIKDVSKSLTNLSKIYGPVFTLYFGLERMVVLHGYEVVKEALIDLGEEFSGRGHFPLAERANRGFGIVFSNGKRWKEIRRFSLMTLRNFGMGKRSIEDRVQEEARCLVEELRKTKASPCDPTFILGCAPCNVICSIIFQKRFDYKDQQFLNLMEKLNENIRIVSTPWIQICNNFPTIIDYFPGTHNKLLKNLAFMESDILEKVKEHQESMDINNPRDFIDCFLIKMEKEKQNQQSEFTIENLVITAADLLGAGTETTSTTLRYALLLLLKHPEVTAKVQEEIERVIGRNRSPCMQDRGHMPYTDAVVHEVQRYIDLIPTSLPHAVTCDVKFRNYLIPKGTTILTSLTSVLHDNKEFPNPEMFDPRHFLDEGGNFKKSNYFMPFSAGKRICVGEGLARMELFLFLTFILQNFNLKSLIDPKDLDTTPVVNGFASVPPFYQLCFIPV

[18] = target: Fructose-bisphosphate aldolase (Mycobacterium tuberculosis, UniProt P9WQA3); test: Fluorescence-based biochemical high throughput dose response assay for inhibitors of the fructose-bisphosphate aldolase (FBA) of M. tuberculosis.; type: functional
Sequence of Fructose-bisphosphate aldolase (P9WQA3 whole entry): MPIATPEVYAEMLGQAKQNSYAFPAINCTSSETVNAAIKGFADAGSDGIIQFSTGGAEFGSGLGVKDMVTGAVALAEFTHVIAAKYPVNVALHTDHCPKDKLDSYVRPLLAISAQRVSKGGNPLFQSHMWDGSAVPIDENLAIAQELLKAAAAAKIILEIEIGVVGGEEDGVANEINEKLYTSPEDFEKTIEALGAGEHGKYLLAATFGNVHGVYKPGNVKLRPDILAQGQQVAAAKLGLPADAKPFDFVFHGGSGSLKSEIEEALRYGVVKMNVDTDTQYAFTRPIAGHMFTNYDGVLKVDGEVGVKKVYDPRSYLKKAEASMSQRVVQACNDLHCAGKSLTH

Cytochrome P450 2C9 = Cytochrome P450 2C9 (Homo sapiens, UniProt P11712)
Sequence of Cytochrome P450 2C9 (P11712 whole entry): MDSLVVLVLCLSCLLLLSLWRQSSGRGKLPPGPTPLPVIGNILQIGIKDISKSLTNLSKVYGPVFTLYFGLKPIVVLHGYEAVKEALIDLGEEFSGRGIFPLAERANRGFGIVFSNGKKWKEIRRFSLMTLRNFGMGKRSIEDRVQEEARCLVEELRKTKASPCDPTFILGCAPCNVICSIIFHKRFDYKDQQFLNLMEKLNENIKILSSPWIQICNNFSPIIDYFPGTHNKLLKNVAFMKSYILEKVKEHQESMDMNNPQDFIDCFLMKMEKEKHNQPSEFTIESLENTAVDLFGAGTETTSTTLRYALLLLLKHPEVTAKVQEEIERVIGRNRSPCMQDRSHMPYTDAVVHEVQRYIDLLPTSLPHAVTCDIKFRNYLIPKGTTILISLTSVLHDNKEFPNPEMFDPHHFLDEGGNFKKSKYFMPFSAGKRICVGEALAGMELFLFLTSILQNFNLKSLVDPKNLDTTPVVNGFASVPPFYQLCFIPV

[19] = target: T4, Replicative DNA helicase DnaB (Mycobacterium tuberculosis, UniProt P9WMR3); test: DnaB intein splicing inhibitors, dose response, biochemical, cell-free fluorescence (AID 449749); type: functional
T4 sequence (P9WMR3 whole entry): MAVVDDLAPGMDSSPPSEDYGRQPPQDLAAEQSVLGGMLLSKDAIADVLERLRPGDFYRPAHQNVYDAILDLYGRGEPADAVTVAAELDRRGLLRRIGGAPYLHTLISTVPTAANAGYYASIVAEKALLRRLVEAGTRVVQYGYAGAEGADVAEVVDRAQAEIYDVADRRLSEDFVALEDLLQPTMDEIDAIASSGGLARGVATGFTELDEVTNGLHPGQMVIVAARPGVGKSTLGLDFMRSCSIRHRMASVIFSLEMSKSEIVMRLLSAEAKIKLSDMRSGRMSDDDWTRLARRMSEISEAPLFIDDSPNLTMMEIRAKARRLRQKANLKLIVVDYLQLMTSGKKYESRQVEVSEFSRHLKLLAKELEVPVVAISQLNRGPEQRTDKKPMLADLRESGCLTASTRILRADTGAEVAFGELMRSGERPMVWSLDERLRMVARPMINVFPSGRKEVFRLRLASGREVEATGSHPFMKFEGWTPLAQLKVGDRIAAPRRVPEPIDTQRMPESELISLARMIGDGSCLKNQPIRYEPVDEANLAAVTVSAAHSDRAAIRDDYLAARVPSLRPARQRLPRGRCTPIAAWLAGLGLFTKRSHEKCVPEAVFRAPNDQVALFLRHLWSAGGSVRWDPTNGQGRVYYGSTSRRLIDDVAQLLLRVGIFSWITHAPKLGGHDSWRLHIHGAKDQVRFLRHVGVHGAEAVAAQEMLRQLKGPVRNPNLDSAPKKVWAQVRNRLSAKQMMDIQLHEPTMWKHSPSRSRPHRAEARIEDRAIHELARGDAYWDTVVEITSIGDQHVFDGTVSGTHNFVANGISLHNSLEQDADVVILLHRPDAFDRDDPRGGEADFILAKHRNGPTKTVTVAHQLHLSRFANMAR

Protein RecA = target: T5, Protein RecA (Mycobacterium tuberculosis, UniProt P9WHJ3); test: Fluorescence Cell-Free Homogeneous Dose Retest to Identify Inhibitors of RecA-Intein Splicing Activity. [Related pubchem assays (depositor defined):AID2097, AID2223, AID489010, AID492950]; type: functional
T5 sequence (P9WHJ3 whole entry): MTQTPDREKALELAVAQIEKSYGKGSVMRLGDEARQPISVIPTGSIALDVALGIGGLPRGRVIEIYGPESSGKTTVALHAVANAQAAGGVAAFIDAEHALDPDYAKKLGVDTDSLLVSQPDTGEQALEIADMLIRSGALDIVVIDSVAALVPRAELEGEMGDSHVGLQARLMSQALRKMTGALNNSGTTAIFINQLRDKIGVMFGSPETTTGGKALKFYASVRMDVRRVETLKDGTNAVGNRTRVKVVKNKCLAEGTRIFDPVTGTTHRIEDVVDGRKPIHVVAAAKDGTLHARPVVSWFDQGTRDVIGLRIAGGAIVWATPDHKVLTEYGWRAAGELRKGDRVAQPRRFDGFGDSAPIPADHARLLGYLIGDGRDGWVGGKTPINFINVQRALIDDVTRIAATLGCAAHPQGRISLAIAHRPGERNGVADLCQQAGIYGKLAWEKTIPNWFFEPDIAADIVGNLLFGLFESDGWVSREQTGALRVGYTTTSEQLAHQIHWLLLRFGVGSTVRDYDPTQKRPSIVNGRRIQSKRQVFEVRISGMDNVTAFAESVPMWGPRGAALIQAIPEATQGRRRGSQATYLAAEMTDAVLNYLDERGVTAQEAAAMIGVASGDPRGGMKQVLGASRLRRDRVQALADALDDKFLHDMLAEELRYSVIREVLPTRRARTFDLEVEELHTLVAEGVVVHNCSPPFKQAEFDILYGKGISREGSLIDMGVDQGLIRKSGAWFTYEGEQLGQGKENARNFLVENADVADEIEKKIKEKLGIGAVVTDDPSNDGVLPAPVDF

[20] = target: Dual specificity tyrosine-phosphorylation-regulated kinase 1A (Rattus norvegicus, UniProt Q63470); type: biochemical, Homo sapiens
[21] = HeLa cell cytotoxicity, dose response, cytotoxicity control for MgcRacGAP inhibitor project (AID 624300); type: functional
[22] = target: T6, Rac GTPase-activating protein 1 (Homo sapiens, UniProt Q9H0H5); test: MgcRacGAP GTPase-activating activity inhibitors, confirmation, biochemical, ADP Hunter fluorescence, primary and confirmatory (AID 624330); type: functional
T6 sequence (Q9H0H5 whole entry): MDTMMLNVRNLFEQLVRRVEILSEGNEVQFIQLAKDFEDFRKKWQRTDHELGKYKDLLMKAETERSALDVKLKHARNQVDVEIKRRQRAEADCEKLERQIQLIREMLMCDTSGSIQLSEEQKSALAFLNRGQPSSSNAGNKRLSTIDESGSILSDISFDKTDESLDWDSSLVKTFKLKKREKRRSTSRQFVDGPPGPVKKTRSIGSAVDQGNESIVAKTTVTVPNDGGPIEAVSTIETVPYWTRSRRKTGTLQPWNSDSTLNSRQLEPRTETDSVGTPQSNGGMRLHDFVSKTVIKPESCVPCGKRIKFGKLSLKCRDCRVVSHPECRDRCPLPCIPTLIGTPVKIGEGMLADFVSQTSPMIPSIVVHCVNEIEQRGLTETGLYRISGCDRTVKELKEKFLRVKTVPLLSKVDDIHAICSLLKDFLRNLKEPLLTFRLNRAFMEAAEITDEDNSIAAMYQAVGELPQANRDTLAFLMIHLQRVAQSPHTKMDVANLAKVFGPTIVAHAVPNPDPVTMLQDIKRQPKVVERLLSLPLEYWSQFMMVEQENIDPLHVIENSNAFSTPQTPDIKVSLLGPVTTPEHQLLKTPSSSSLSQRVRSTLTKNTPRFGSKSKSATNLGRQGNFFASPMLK

[23] = target: FAD-linked sulfhydryl oxidase ALR (Homo sapiens, UniProt P55789); test: inhibitors of human ALR sulfhydryl oxidase, dose response, biochemical, H2O2 detection, luminescence, cherry-pick (AID 493248)
Sequence of FAD-linked sulfhydryl oxidase ALR (P55789 whole entry): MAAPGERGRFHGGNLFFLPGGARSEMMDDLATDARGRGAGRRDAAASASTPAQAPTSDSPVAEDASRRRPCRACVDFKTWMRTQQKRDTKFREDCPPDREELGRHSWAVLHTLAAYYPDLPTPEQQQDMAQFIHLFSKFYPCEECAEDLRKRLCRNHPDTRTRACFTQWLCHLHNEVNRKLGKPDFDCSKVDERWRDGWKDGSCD

CC(C)N1C[C@H](C)[C@@H](CN(C)Cc2ccccc2Cl)Oc2c(NC(=O)c3ccncc3)cccc2C1=O
IC50 [1]: 0.0201 µM (active)

Cc1ccc2c(Cl)c(C(=O)NC3CC3)sc2c1
IC50 (cells [2]): > 67.5 µM (inactive) | IC50 [3]: > 7.49 µM (active)

Cc1ccc(S(=O)(=O)Nc2ccc3c(c2)CC(=O)N([C@@H](C)CO)C[C@@H](C)[C@H](CN(C)Cc2ccccc2)O3)cc1
AC50 [4]: 39 µM (inactive)

Cc1cc(C(=O)COC(=O)C2=NNC(=O)CC2)c(C)n1CCc1ccccc1
IC50 (cells [5]): > 29.9 µM (inactive) | EC50 [6]: 1.58 µM (active) | IC50 [7]: 7.2 µM (active) | EC50 (cells [8]): > 29.9 µM (inactive)

C=CCSc1nc2ccccc2n1C(=O)/C=C/c1ccc(OC)c(OC)c1
EC50 [9]: > 120 µM (not active) | EC50 [10]: > 120 µM (not active) | EC50 (H4): > 120 µM (not active) | IC50 (Vero [11]): > 25 µM (active) | AC50 (INS1): 8.85 µM (active) | CC50 (Vero [12]): 9.91 µM (active) | AC50 [13]: 1.31 µM (active) | AC50 [14]: 49.4 µM (active) | AC50 [15]: 12.5 µM (active) | IC50 (Interleukin-8 [16]): > 79 µM (inactive) | IC50 (Interleukin-8 [17]): 0.685 µM (active)

CCOC(=O)c1[nH]c2cc3c(cc2c1NC(=O)CN1CCc2ccccc2C1)OCO3
AC50 (Cytochrome P450 2C19): 2.24 µM (inconclusive) | IC50 [18]: 0.485 µM (active) | AC50 (Cytochrome P450 2C9): 7.94 µM (inconclusive)

Oc1ccc(NC(=S)N=Nc2c(O)[nH]c3ccc(Br)cc23)cc1
AC50 [19]: 12.1 µM (active) | EC50 (Protein RecA): 13.7 µM (active) | AC50 [20]: 1.2 µM (active) | CC50 [21]: 61.5 µM (active) | IC50 [22]: 152 µM (active)

C[C@H]1CN([C@@H](C)CO)C(=O)Cc2cc(NS(=O)(=O)c3ccc(F)cc3)ccc2O[C@H]1CN(C)Cc1ccc(Cl)c(Cl)c1
AC50 [4]: 39 µM (inactive)

O=C(N[C@@H](Cc1cccnc1)C(=O)N1CCC[C@H]1C(=O)NCCc1ccccc1Cl)c1ccc(Cl)c(Cl)c1
IC50 (cells [5]): > 29.9 µM (inactive) | EC50 [6]: 2.9 µM (active) | IC50 [7]: 2.6 µM (active) | EC50 (cells [8]): > 29.9 µM (inactive)

COc1c(O)cc2oc(-c3ccc(O)cc3)cc(=O)c2c1O [HISPIDULIN]
AC50 [23]: 0.572 µM (active) | IC50 (cells [2]): > 67.5 µM (inactive) | IC50 [3]: > 0.834 µM (active)

CS(=O)(=O)NN1C(=O)c2ccccc2NC1c1ccccc1 (stereo unspecified)
IC50 [18]: > 1.11 µM (active)
